Structures are written as SMILES.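 Dose response: 5 concentrations. Exposure: 48 h. Format: 96-well plates. Endpoint: linear interpolation; highest concentration if not reached. GI50 marks 50% less growth. TGI: concentration producing complete growth inhibition.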

The results in this text go back to PubChem BioAssay (NCI).

What all share (experiment): inhibition of tumour cell growth, NCI panel, 48 h
Test [1] deals with M14 melanoma.
The subject of test [2] is LOX IMVI melanoma.
The subject of test [3] is HCT-116 colon.
Test [4] deals with MALME-3M melanoma.
The subject of test [5] is HS 578T breast.
Test [6] relates to SNB-19 CNS.
For test [7], the system named is UACC-257 melanoma.
The subject of test [8] is SK-MEL-5 melanoma.

In the case of `COc1ccc2c(c1)c(=O)oc1cc(OC/C(=N\O)c3ccc(F)cc3)ccc12`, the GI50 in test [1] is 15700 nM; in test [2] it was 17800 nM; in test [3] it was 14.2 µM; in test [4] it was 16300 nM; in test [5], 27000 nM; in test [6] it was 12.2 µM. In addition, the GI50 was 25400 nM in test [7] and 16600 nM in test [8]. In addition, the TGI is 30.7 µM in test [1]; 33 µM in test [2]; 28 µM in test [3]; 44.2 µM in test [4]; 75.6 µM in test [5]; 58.8 µM in test [6]. Besides, the TGI in test [7] was 91.1 µM; in test [8] it was 30.8 µM.

Consider `COc1cc2c(/C=C3/C(=O)Nc4c3ccc3ccccc43)c(Cl)[nH]c2cc1C`, for which the GI50 in test [1] is 11.9 nM; in test [2], 5.48 nM; in test [3], 0.0078 µM; in test [5], 289 nM; in test [6], 0.0402 µM; in test [7], 316 nM. For the same compound, in test [8], the GI50 is 103 nM. For the same compound, the TGI in test [1] was 0.032 µM; in test [2], 0.0304 µM; in test [6], over 50 µM; in test [7], over 50 µM; in test [8], 0.284 µM.

For the compound `COc1ccc(/C=C/C(=O)c2ccc(NC(=O)CSc3nnc(-c4cc(OC)c(OC)c(OC)c4)o3)cc2)cc1`, the GI50 was 1600 nM in test [1]; 320 nM in test [2]; 1680 nM in test [4]; 2650 nM in test [5]; 1.78 µM in test [6]; 2160 nM in test [7]. Also, the GI50 in test [8] was 2140 nM. In addition, the TGI is 3.3 µM in test [1]; 1.28 µM in test [2]; 3.45 µM in test [4]; 7.76 µM in test [5]; 3.56 µM in test [6]; 4.69 µM in test [7]. The TGI in test [8] was 5.24 µM.

Regarding `COC(=O)/C(Br)=C/c1c[nH]c2ccc(Br)cc12`, the GI50 was 11400 nM in test [1]; 7180 nM in test [2]; 12.5 µM in test [3]; 14500 nM in test [4]; 1710 nM in test [5]; 16.7 µM in test [6]. Also, the GI50 in test [7] is 24100 nM; in test [8] it was 12200 nM. For the same compound, the TGI in test [1] was determined as 25.8 µM; in test [2], 20.2 µM; in test [3] it was 27.4 µM; in test [4], 28.3 µM; in test [5] it was 17.1 µM; in test [6], 45.7 µM. Also, the TGI in test [7] was found to be 69.4 µM; in test [8], 24.6 µM.

Regarding `COc1ccc(OC)c(/C=C/c2cnnc3ccccc23)c1`, the TGI in test [1] is over 10 µM; in test [2], over 10 µM; in test [3], over 10 µM; in test [5], 7.76 µM; in test [6] it was over 10 µM; in test [7], over 10 µM. Moreover, the TGI in test [8] was over 10 µM.

As for `O=C(Nc1cccc(-n2cc(-c3ccncc3)c(-c3ccc(O)c(Cl)c3)n2)c1)Nc1ccc(Cl)c(C(F)(F)F)c1`, the GI50 was 1790 nM in test [1]; 1610 nM in test [2]; 2.4 µM in test [3]; 2430 nM in test [4]; 1300 nM in test [5]; 3.63 µM in test [6]. In addition, the GI50 was 1980 nM in test [7] and 1660 nM in test [8]. Further, the TGI was 3.77 µM in test [1]; 3.21 µM in test [2]; 8.21 µM in test [3]; 7.59 µM in test [4]; 6.24 µM in test [5]; over 100 µM in test [6]. Besides, the figures for the TGI in test [7] and in test [8] were 4.39 µM and 3.07 µM, respectively.

As for `N=C1N=Nc2nc(C3(c4nc5n(c4O)C(=N)N=N5)Cc4ccccc4C3=O)c(O)n21` (stereo not drawn), the TGI in test [1], in test [2], in test [3], in test [4], in test [5] and in test [6] was over 100 µM throughout. Further, the TGI in test [7] and in test [8] was over 100 µM throughout.

Take `Cc1cc(Cl)ccc1Nc1nc(C(F)(F)F)ccc1C(=O)N/N=C/c1ccc(F)cc1`: the GI50 is 1840 nM in test [1]; 1340 nM in test [2]; 1.4 µM in test [3]; 1110 nM in test [4]; 2230 nM in test [5]; 2.11 µM in test [6]. The GI50 in test [7] is 1330 nM; in test [8] it was 1580 nM. In addition, the TGI stood at 9.64 µM in test [1]; 10.6 µM in test [2]; 11.1 µM in test [3]; 4.7 µM in test [4]; 11.7 µM in test [5]; 12 µM in test [6]. For the same compound, the TGI in test [7] was 3.67 µM; in test [8], 3.13 µM.

As for `COc1ccc(C2SC(C)C(=O)N2NC(=O)C(O)c2ccccc2)cc1` (stereo not drawn), the GI50 in test [1] was over 100000 nM; in test [2] it was over 100000 nM; in test [3], over 100 µM; in test [5] it was over 100000 nM; in test [6] it was over 100 µM; in test [7], over 100000 nM. In test [8], the GI50 is over 100000 nM. In addition, the TGI in test [1], in test [2], in test [3], in test [5], in test [6] and in test [7] was over 100 µM each time. The TGI in test [8] is over 100 µM.

Take `CC(=O)O[C@@H]1CC(=O)O[C@@H]2C[C@@H](CC/C(Cl)=C/C/C=C\1C)O[C@@H]2CO`: the GI50 in test [1] was over 25000 nM; in test [2] it was over 25000 nM; in test [3], over 25 µM; in test [5] it was over 25000 nM; in test [6], over 25 µM; in test [7], over 25000 nM. In test [8], the GI50 was over 25000 nM. Further, the TGI in test [1], in test [2], in test [3], in test [5], in test [6] and in test [7] was over 25 µM each time. The compound further had a TGI in test [8] of over 25 µM.
